Reference: the supplement of paper PMC10307832

Legend:
Experiment in all cases: relative viability (nuclei count vs DMSO), 5 days (fraction); higher = more cells survive
Everolimus + Luminespib = compound: CO[C@H]1C[C@@H]2CC[C@@H](C)[C@@](O)(O2)C(=O)C(=O)N2CCCC[C@H]2C(=O)O[C@H]([C@H](C)C[C@@H]2CC[C@@H](OCCO)[C@H](OC)C2)CC(=O)[C@H](C)/C=C(\C)[C@@H](O)[C@@H](OC)C(=O)[C@H](C)C[C@H](C)/C=C/C=C/C=C/1C [Everolimus] + CCNC(=O)c1noc(-c2cc(C(C)C)c(O)cc2O)c1-c1ccc(CN2CCOCC2)cc1 [Luminespib] (partner 0.01 µM)
How it was run: (§1)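 Relative viability divides the nuclei count in treated wells by that in vehicle wells. Lung cancer cell lines were seeded in 1536-well plates, dosed by pin tool the next day, and fixed and stained after 5 days in one step with final 0.05% Triton X-100, 1% formaldehyde and 1 ug/ml Hoechst. Dosing was a single drug or a fixed anchor-drug dose plus five library-drug doses (not always all listed) in √10 steps, and values are medians of duplicate plates imaged at 4×.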

Everolimus + Lapatinib = compound: CO[C@H]1C[C@@H]2CC[C@@H](C)[C@@](O)(O2)C(=O)C(=O)N2CCCC[C@H]2C(=O)O[C@H]([C@H](C)C[C@@H]2CC[C@@H](OCCO)[C@H](OC)C2)CC(=O)[C@H](C)/C=C(\C)[C@@H](O)[C@@H](OC)C(=O)[C@H](C)C[C@H](C)/C=C/C=C/C=C/1C [Everolimus] + CS(=O)(=O)CCNCc1ccc(-c2ccc3ncnc(Nc4ccc(OCc5cccc(F)c5)c(Cl)c4)c3c2)o1 [Lapatinib] (partner 2 µM)
How it was run: as §1

Everolimus + Decitabine = compound: CO[C@H]1C[C@@H]2CC[C@@H](C)[C@@](O)(O2)C(=O)C(=O)N2CCCC[C@H]2C(=O)O[C@H]([C@H](C)C[C@@H]2CC[C@@H](OCCO)[C@H](OC)C2)CC(=O)[C@H](C)/C=C(\C)[C@@H](O)[C@@H](OC)C(=O)[C@H](C)C[C@H](C)/C=C/C=C/C=C/1C [Everolimus] + Nc1ncn([C@H]2C[C@H](O)[C@@H](CO)O2)c(=O)n1 [Decitabine] (partner 2 µM)
How it was run: as §1

Everolimus + Olaparib = compound: CO[C@H]1C[C@@H]2CC[C@@H](C)[C@@](O)(O2)C(=O)C(=O)N2CCCC[C@H]2C(=O)O[C@H]([C@H](C)C[C@@H]2CC[C@@H](OCCO)[C@H](OC)C2)CC(=O)[C@H](C)/C=C(\C)[C@@H](O)[C@@H](OC)C(=O)[C@H](C)C[C@H](C)/C=C/C=C/C=C/1C [Everolimus] + O=C(c1cc(Cc2n[nH]c(=O)c3ccccc23)ccc1F)N1CCN(C(=O)C2CC2)CC1 [Olaparib] (partner 8 µM)
How it was run: as §1

Cell Line | relative viability (Everolimus + Luminespib; first compound 0.01 µM) | relative viability (Everolimus + Luminespib; first compound 0.03162 µM) | relative viability (Everolimus + Luminespib; first compound 0.1 µM) | relative viability (Everolimus + Luminespib; first compound 0.3162 µM) | relative viability (Everolimus + Luminespib; first compound 1 µM) | relative viability (Everolimus + Lapatinib; first compound 0.01 µM) | relative viability (Everolimus + Lapatinib; first compound 0.03162 µM) | relative viability (Everolimus + Lapatinib; first compound 0.1 µM) | relative viability (Everolimus + Lapatinib; first compound 0.3162 µM) | relative viability (Everolimus + Lapatinib; first compound 1 µM) | relative viability (Everolimus + Decitabine; first compound 0.01 µM) | relative viability (Everolimus + Decitabine; first compound 0.03162 µM) | relative viability (Everolimus + Decitabine; first compound 0.1 µM) | relative viability (Everolimus + Decitabine; first compound 0.3162 µM) | relative viability (Everolimus + Decitabine; first compound 1 µM) | relative viability (Everolimus + Olaparib; first compound 0.01 µM) | relative viability (Everolimus + Olaparib; first compound 0.03162 µM) | relative viability (Everolimus + Olaparib; first compound 0.1 µM) | relative viability (Everolimus + Olaparib; first compound 0.3162 µM) | relative viability (Everolimus + Olaparib; first compound 1 µM)
UMC-11 | 0.328 | 0.348 | 0.385 | 0.343 | 0.366 | 0.373 | 0.326 | 0.306 | 0.433 | 0.438 | 0.329 | 0.359 | 0.352 | 0.367 | 0.392 | 0.362 | 0.273 | 0.223 | 0.239 | 0.29
LC-2-ad | 1.17 | 1.05 | 0.832 | 1.08 | 0.892 | 0.924 | 0.874 | 0.941 | 0.931 | 1.08 | 0.846 | 0.779 | 0.888 | 0.819 | 0.726 | 0.861 | 0.972 | 0.817 | 0.84 | 0.864
SK-MES-1 | 0.347 | 0.383 | 0.329 | 0.281 | 0.331 | 0.358 | 0.384 | 0.326 | 0.384 | 0.325 | 0.346 | 0.362 | 0.335 | 0.345 | 0.501 | 0.539 | 0.468 | 0.512 | 0.537 | 0.421
A-427 | 0.584 | 0.611 | 0.651 | 0.779 | 0.729 | 0.811 | 0.902 | 0.645 | 0.768 | 0.85 | 0.436 | 0.509 | 0.45 | 0.486 | 0.561 | 0.576 | 0.723 | 0.635 | 0.656 | 0.691
NCI-H322M | 0.579 | 0.568 | 0.387 | 0.554 | 0.543 | 0.547 | 0.545 | 0.601 | 0.526 | 0.508 | 0.766 | 0.7 | 0.585 | 0.596 | 0.609 | 0.723 | 0.686 | 0.742 | 0.704 | 0.73
NCI-H1975 | 0.158 | 0.169 | 0.194 | 0.191 | 0.287 | 0.788 | 0.669 | 0.669 | 0.762 | 0.676 | 0.365 | 0.425 | 0.327 | 0.385 | 0.337 | 0.752 | 0.654 | 0.697 | 0.691 | 0.655
NCI-H1437 | 1.12 | 1.11 | 1.08 | 1.06 | 0.948 | 0.642 | 0.55 | 0.464 | 0.508 | 0.417 | 0.597 | 0.483 | 0.59 | 0.461 | 0.466 | 0.632 | 0.622 | 0.588 | 0.596 | 0.598
NCI-H2009 | 0.832 | 0.866 | 0.77 | 0.852 | 0.72 | 0.853 | 0.782 | 0.441 | 0.878 | 0.877 | 0.295 | 0.313 | 0.382 | 0.288 | 0.377 | 0.601 | 0.456 | 0.364 | 0.492 | 0.446
NCI-H1651 | 0.589 | 0.531 | 0.612 | 0.575 | 0.567 | 0.537 | 0.391 | 0.497 | 0.533 | 0.521 | 0.532 | 0.383 | 0.464 | 0.489 | 0.484 | 0.185 | 0.201 | 0.254 | 0.229 | 0.211
NCI-H1666 | 0.898 | 0.964 | 0.909 | 0.98 | 0.929 | 0.459 | 0.445 | 0.335 | 0.45 | 0.475 | 0.676 | 0.553 | 0.639 | 0.75 | 0.672 | 0.725 | 0.779 | 0.781 | 0.731 | 0.823
NCI-H1734 | 0.176 | 0.211 | 0.185 | 0.184 | 0.208 | 0.715 | 0.582 | 0.582 | 0.551 | 0.73 | 0.422 | 0.397 | 0.351 | 0.371 | 0.367 | 0.448 | 0.409 | 0.456 | 0.406 | 0.407
EPLC-272H | 0.162 | 0.176 | 0.188 | 0.203 | 0.263 | 0.615 | 0.73 | 0.543 | 0.605 | 0.587 | 0.312 | 0.291 | 0.259 | 0.306 | 0.327 | 0.552 | 0.484 | 0.428 | 0.429 | 0.483
NCI-H2023 | 0.309 | 0.269 | 0.413 | 0.266 | 0.219 | 0.604 | 0.456 | 0.378 | 0.616 | 0.314 | 0.204 | 0.21 | 0.198 | 0.199 | 0.168 | 0.276 | 0.294 | 0.253 | 0.256 | 0.296
BEN | 0.191 | 0.152 | 0.201 | 0.161 | 0.168 | 0.366 | 0.302 | 0.28 | 0.34 | 0.377 | 0.574 | 0.412 | 0.546 | 0.442 | 0.583 | 0.671 | 0.472 | 0.505 | 0.512 | 0.59
